# Literature values as cited in patent US20210236583A1, “Targeting the renin-angiotensin system for treatment of environment-and pathogen-induced lung injury” (priority 2020, published 2021).
# Test system: mice
# Settings: direct injection of recombinant ACE2 protein
substance,measurement,value
"recombinant ACE2 protein: recombinant ACE2 protein injected directly, from the literature (Imai et al., 2005)",protection from severe acute lung injury,protect mice from severe acute lung injury
